Laboratory results from patent US8071768B2, “Alkylquinoline and alkylquinazoline kinase modulators” (Janssen Pharmaceutica, N.V., priority 2005, dated 2011).
Counter-ions that a name gives are not always drawn.

Columns and labels:
[1] = target: T1, isolated kinase domain of the human c-kit receptor (Homo sapiens, UniProt P10721); experiment: c-Kit Fluorescence Polarization Kinase Assay; format: biochemical; conditions: uncertainty ±10%; read-out: ckit IC50
T1 construct: isolated kinase domain of the human c-kit receptor; purchased ProQinase lot SP005
Procedure: c-Kit Fluorescence Polarization Kinase Assay
The compounds of the present invention are also specific inhibitors of c-Kit. Selection of preferred compounds of Formula I for use as c-Kit inhibitors was performed in the following manner using an in vitro kinase assay to measure inhibition of the isolated kinase domain of the human c-kit receptor in a fluorescence polarization (FP) protocol. The c-kit assay utilized the fluorescein-labeled phosphopeptide and the anti-phosphotyrosine antibody included in the Panvera Phospho-Tyrosine Kinase Kit (Green) supplied by Invitrogen. When c-kit phosphorylated the poly Glu4Tyr, the fluorescein-labeled phosphopeptide was displaced from the anti-phosphotyrosine antibody by the phosphorylated poly Glu4Tyr, thus decreasing the FP value. The c-kit kinase reaction was incubated at room temperature for 45 minutes under the following conditions: 1 nM c-kit (ProQinase, lot SP005), 100 ug/mL poly Glu4Tyr, 50 uM ATP, 5 mM MgCl2, 1 mM DTT, 0.01% Tween-20, 1% DMSO or compound in […], pH 7.5. The kinase reaction was stopped with the addition of EDTA. The fluorescein-labeled phosphopeptide and the anti-phosphotyrosine antibody were added and incubated for 30 minutes at room temperature and fluorescence polarization was read. Data points were an average of triplicate samples. Inhibition and IC50 data analysis were done with GraphPad Prism using a non-linear regression fit with a multiparamater, sigmoidal dose-response (variable slope) equation.

TrkB = target: T2, TrkB (Homo sapiens, UniProt Q16620); experiment: Trk B Fluorescence Polarization Kinase Assay; format: biochemical; conditions: uncertainty ±10%
T2 construct: purchased Upstate 14-507M
Summary of the method: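 The TrkB kinase reaction (50 nM enzyme, 20 ug/mL poly Glu4Tyr, 150 uM ATP, 5 mM MgCl2, 1% DMSO) ran 30 minutes at room temperature and was stopped with EDTA. Phosphorylation was detected by fluorescence-polarization displacement of a fluorescein phosphopeptide from an anti-phosphotyrosine antibody. IC50 came from a variable-slope sigmoidal fit of triplicates.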

T2 sequence (Q16620 32-822): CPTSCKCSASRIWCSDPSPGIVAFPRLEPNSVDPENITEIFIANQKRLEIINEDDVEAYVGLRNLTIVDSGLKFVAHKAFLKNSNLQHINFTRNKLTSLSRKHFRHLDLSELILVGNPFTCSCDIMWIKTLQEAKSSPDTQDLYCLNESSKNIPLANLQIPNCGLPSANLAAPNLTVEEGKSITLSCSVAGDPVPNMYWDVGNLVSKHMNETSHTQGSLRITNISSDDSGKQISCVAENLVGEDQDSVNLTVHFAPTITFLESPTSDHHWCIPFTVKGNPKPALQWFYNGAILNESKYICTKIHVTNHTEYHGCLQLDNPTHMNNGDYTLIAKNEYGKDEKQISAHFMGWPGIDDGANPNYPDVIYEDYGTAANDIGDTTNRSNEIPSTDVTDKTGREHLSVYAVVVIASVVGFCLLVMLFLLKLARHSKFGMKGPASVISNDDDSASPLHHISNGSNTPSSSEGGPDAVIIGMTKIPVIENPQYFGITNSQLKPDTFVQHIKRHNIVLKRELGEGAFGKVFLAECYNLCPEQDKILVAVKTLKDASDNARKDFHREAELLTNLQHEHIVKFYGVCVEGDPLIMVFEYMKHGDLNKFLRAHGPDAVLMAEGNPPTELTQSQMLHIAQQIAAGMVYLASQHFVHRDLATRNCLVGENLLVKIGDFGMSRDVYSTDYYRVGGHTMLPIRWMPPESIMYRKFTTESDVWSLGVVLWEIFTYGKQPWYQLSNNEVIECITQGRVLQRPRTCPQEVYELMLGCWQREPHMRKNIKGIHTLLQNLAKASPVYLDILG
T1 sequence (P10721 589-937 limits assumed): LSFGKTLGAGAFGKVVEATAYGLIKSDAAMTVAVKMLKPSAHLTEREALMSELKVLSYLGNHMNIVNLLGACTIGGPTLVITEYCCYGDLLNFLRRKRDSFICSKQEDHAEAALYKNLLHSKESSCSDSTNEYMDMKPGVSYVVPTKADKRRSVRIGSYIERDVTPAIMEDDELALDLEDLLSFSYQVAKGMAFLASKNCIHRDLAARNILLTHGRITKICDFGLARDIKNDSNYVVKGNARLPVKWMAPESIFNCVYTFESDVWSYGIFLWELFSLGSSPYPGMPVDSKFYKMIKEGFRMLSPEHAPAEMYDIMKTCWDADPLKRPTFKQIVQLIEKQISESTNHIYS

COc1cc2ncnc(C3CCN(C(=O)Nc4ccc(OC(C)C)cc4)CC3)c2cc1OC [Compound 1, 4-(6,7-Dimethoxy-quinazolin-4-yl)-piperidine-1-carboxylic acid (4-isopropoxy-phenyl)-amide hydrochloride]
IC50 [1]: 82.5 nM
IC50 (TrkB): 220 nM

COc1cc2ncnc(C3CCN(C(=O)Nc4ccc(C(C)C)cc4)CC3)c2cc1OC [Compound 4, 4-(6,7-Dimethoxy-quinazolin-4-yl)-piperidine-1-carboxylic acid (4-isopropyl-phenyl)-amide]
IC50 [1]: 610 nM

COc1cc2ncnc(C3CCN(C(=O)Nc4ccc(OC5CCC5)nc4)CC3)c2cc1OC [Compound 17, 4-(6,7-Dimethoxy-quinazolin-4-yl)-piperidine-1-carboxylic acid (6-cyclobutoxy-pyridin-3-yl)-amide]
IC50 [1]: 77.5 nM
IC50 (TrkB): 500 nM

COc1cc2ncnc(C3CCN(C(=O)Nc4ccc(N5CCOCC5)cc4)CC3)c2cc1OC [Compound 18, 4-(6,7-Dimethoxy-quinazolin-4-yl)-piperidine-1-carboxylic acid (4-morpholin-4-yl-phenyl)-amide]
IC50 [1]: 158 nM
IC50 (TrkB): 19200 nM

O=C1CCCN1CCCOc1ccc2c(C3CCN(C(=O)Nc4ccc(N5CCOCC5)cc4)CC3)ncnc2c1 [Compound 68, 4-{7-[3-(2-Oxo-pyrrolidin-1-yl)-propoxy]-quinazolin-4-yl}-piperidine-1-carboxylic acid (4-morpholin-4-yl-phenyl)-amide]
IC50 [1]: 28 nM
IC50 (TrkB): > 20000 nM

O=C1CCCN1CCCOc1ccc2c(C3CCN(C(=O)Nc4ccc(N5CCOCC5)nc4)CC3)ncnc2c1 [Compound 72, 4-{7-[3-(2-Oxo-pyrrolidin-1-yl)-propoxy]-quinazolin-4-yl}-piperidine-1-carboxylic acid (6-morpholin-4-yl-pyridin-3-yl)-amide]
IC50 [1]: 23 nM
IC50 (TrkB): 2000 nM

CC(C)Oc1ccc(NC(=O)N2CCC(c3ncnc4ccc(OCCCN5CCN(C)CC5)cc34)CC2)cc1 [Compound 76, 4-{6-[3-(4-Methyl-piperazin-1-yl)-propoxy]-quinazolin-4-yl}-piperidine-1-carboxylic acid (4-isopropoxy-phenyl)-amide]
IC50 [1]: 282 nM
IC50 (TrkB): 7900 nM

CN1CCN(CCCOc2ccc3c(C4CCN(C(=O)Nc5ccc(N6CCOCC6)nc5)CC4)ncnc3c2)CC1 [Compound 80, 4-{7-[3-(4-Methyl-piperazin-1-yl)-propoxy]-quinazolin-4-yl}-piperidine-1-carboxylic acid (6-morpholin-4-yl-pyridin-3-yl)-amide]
IC50 [1]: 160 nM
IC50 (TrkB): 9100 nM

O=C1CCCN1CCOc1ccc2c(C3CCN(C(=O)Nc4ccc(N5CCOCC5)nc4)CC3)ncnc2c1 [Compound 83, 4-{7-[2-(2-Oxo-pyrrolidin-1-yl)-ethoxy]-quinazolin-4-yl}-piperidine-1-carboxylic acid (6-morpholin-4-yl-pyridin-3-yl)-amide]
IC50 [1]: 25 nM
IC50 (TrkB): 8500 nM

CS(=O)(=O)NCCCOc1ccc2c(C3CCN(C(=O)Nc4ccc(OC5CCCC5)nc4)CC3)ncnc2c1 [Compound 88, 4-[7-(3-Methanesulfonylamino-propoxy)-quinazolin-4-yl]-piperidine-1-carboxylic acid (6-cyclopentyloxy-pyridin-3-yl)-amide]
IC50 [1]: 11 nM
IC50 (TrkB): 400 nM

O=C1CCCN1CCCOc1ccc2c(C3CCN(C(=O)Nc4ccc(N5CCCC5)nc4)CC3)ncnc2c1 [Compound 89, 4-{7-[3-(2-Oxo-pyrrolidin-1-yl)-propoxy]-quinazolin-4-yl}-piperidine-1-carboxylic acid (6-pyrrolidin-1-yl-pyridin-3-yl)-amide]
IC50 [1]: 13 nM
IC50 (TrkB): 2700 nM

CNC(=O)C1CCN(c2ccc3c(C4CCN(C(=O)Nc5ccc(N6CCCC6)cc5)CC4)ncnc3c2)CC1 [Compound 155, 4-[7-(4-Carboxylic acid methylamide-piperidin-1-yl)-quinazolin-4-yl]-piperidine-1-carboxylic acid (4-pyrrolidin-1-yl-phenyl)-amide]
IC50 (TrkB): 11000 nM

CN1CCN(CCOc2ccc3c(C4CCN(C(=O)Nc5ccc(N6CCOCC6)cc5)CC4)ncnc3c2)CC1 [Compound 156, 4-{7-[2-(4-Methyl-piperazin-1-yl)-ethoxy]-quinazolin-4-yl}-piperidine-1-carboxylic acid (4-morpholin-4-yl-phenyl)-amide]
IC50 (TrkB): > 21000 nM

CN1CCN(CCOc2ccc3c(C4CCN(C(=O)Nc5ccc(N6CCCC6)cc5)CC4)ncnc3c2)CC1 [Compound 157, 4-{7-[2-(4-Methyl-piperazin-1-yl)-ethoxy]-quinazolin-4-yl}-piperidine-1-carboxylic acid (4-pyrrolidin-1-yl-phenyl)-amide]
IC50 (TrkB): 7050 nM

CN1CCN(CCCOc2ccc3c(C4CCN(C(=O)Nc5ccc(N6CCCC6)cc5)CC4)ncnc3c2)CC1 [Compound 158, 4-{7-[3-(4-Methyl-piperazin-1-yl)-propoxy]-quinazolin-4-yl}-piperidine-1-carboxylic acid (4-pyrrolidin-1-yl-phenyl)-amide]
IC50 (TrkB): 5000 nM

CN1CCN(c2ccc3c(C4CCN(C(=O)Nc5ccc(N6CCCC6)cc5)CC4)ncnc3c2)CC1 [Compound 159, 4-[7-(4-Methyl-piperazin-1-yl)-quinazolin-4-yl]-piperidine-1-carboxylic acid (4-pyrrolidin-1-yl-phenyl)-amide]
IC50 (TrkB): 7860 nM

CN1CCN(c2ccc3c(C4CCN(C(=O)Nc5ccc(N6CCCC6)nc5)CC4)ncnc3c2)CC1 [Compound 160, 4-[7-(4-Methyl-piperazin-1-yl)-quinazolin-4-yl]-piperidine-1-carboxylic acid (6-pyrrolidin-1-yl-pyridin-3-yl)-amide]
IC50 (TrkB): 6450 nM

O=C(Nc1ccc(N2CCCC2)cc1)N1CCC(c2ncnc3cc(OCCCN4CCC[C@H]4CO)ccc23)CC1 [Compound 161, (S)-4-{7-[3-(2-Hydroxymethyl-pyrrolidin-1-yl)-propoxy]-quinazolin-4-yl}-piperidine-1-carboxylic acid (4-pyrrolidin-1-yl-phenyl)-amide]
IC50 (TrkB): 6480 nM

CC(=O)N1CCC[C@H]1COc1ccc2c(C3CCN(C(=O)Nc4ccc(N5CCCC5)cc4)CC3)ncnc2c1 [Compound 162, (S)-4-[7-(1-Acetyl-pyrrolidin-2-ylmethoxy)-quinazolin-4-yl]-piperidine-1-carboxylic acid (4-pyrrolidin-1-yl-phenyl)-amide]
IC50 (TrkB): > 21000 nM

CC(=O)N1CCC(COc2ccc3c(C4CCN(C(=O)Nc5ccc(N6CCCC6)cc5)CC4)ncnc3c2)CC1 [Compound 163, 4-[7-(1-Acetyl-piperidin-4-ylmethoxy)-quinazolin-4-yl]-piperidine-1-carboxylic acid (4-pyrrolidin-1-yl-phenyl)-amide]
IC50 (TrkB): 4120 nM
